Measurements taken from US20250230193A1, “CYCLIC COMPOUND HAVING SELECTIVE KRAS INHIBITORY EFFECT ON HRAS AND NRAS” (CHUGAI SEIYAKU KABUSHIKI KAISHA, priority 2022, published 2025).
Where a SMILES comes first, the peptide text is derived from it. Bridges are numbered along the chain shown (N, C = ends). [ ]: non-standard residue; d: D form. The star is where a group is joined. hPhe(3-Cl-4-CF3) = N[C@@H](CCc1ccc(C(F)(F)F)c(Cl)c1)C(=O)O; NPrPhe(4-CF3) = CCCN[C@@H](Cc1ccc(C(F)(F)F)cc1)C(=O)O; NEtPhe(4-Me) = CCN[C@@H](Cc1ccc(C)cc1)C(=O)O; NMeGly(cPent) = CN[C@H](C(=O)O)C1CCCC1; Hyp = O=C(O)[C@@H]1C[C@@H](O)CN1; NMeD = CN[C@@H](CC(=O)O)C(=O)O; NMeL = CN[C@@H](CC(C)C)C(=O)O; Morpholide = C1CN(*)CCO1; Ac5c = NC1(C(=O)O)CCCC1; Aze = O=C(O)[C@@H]1CCN1; NcPrGly = O=C(O)CNC1CC1; Ac4c = NC1(C(=O)O)CCC1; NEtG = CCNCC(=O)O; Sar = CNCC(=O)O

What was measured:
[1] = target: GDP-bound NRAS wild-type protein (Homo sapiens, UniProt P01111); experiment: Binding to NRAS by surface plasmon resonance (SPR), Single Cycle Kinetics
[2] = target: GDP-bound HRAS wild-type protein (Homo sapiens, UniProt P01112); experiment: Binding to HRAS by surface plasmon resonance (SPR), Single Cycle Kinetics
[3] = SPR, GDP-bound wild-type proteins

Sequence of GDP-bound NRAS wild-type protein (P01111 whole entry): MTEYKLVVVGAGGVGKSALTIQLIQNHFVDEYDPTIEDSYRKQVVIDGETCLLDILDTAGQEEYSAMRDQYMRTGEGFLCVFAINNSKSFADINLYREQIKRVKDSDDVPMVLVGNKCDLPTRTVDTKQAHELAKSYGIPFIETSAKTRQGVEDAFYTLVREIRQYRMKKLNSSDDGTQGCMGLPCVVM
Sequence of GDP-bound HRAS wild-type protein (P01112 whole entry): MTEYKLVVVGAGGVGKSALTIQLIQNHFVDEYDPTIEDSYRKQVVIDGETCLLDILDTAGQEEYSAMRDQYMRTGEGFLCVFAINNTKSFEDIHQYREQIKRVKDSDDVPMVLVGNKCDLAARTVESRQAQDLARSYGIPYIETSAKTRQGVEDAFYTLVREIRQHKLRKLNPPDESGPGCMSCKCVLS

SMILES | NRAS/KRAS (ratio of KD for GDP-bound NRAS wild-type to KD for KRAS) ([1]; SPR) | HRAS/KRAS (ratio of KD for GDP-bound HRAS wild-type to KD for KRAS) ([2]; SPR) | further results
CCCN1C(=O)CN(C)C(=O)[C@@H]2CCN2C(=O)[C@H]([C@@H](C)CC)NC(=O)[C@H](CC(C)C)N(C)C(=O)C[C@@H](C(=O)N2CCOCC2)N(C)C(=O)[C@H](C2CCCC2)N(C)C(=O)C2(CCC2)NC(=O)[C@@H]2C[C@@H](OCC)CN2C(=O)[C@H](CCc2ccc(C(F)(F)F)c(Cl)c2)NC(=O)CN(C)C(=O)[C@@H]1Cc1ccc(C(F)(F)F)cc1 [PP0405] ([NMeL]I[Aze][Sar][NPrPhe(4-CF3)][Sar][hPhe(3-Cl-4-CF3)][Hyp](Et)[Ac4c][NMeGly(cPent)][NMeD]-Morpholide; lactam N-11) | B (a compound having 3 or more and less than 10 is denoted as B) | C (A compound having a KD ratio of 0.1 or more and less than 3 is denoted as C) | –
CCCN1C(=O)CN(C)C(=O)CN(CC)C(=O)[C@H]([C@@H](C)CC)NC(=O)[C@H](CC(C)C)N(C)C(=O)C[C@@H](C(=O)N(C)C)NC(=O)[C@H](C2CCCC2)N(C)C(=O)C2(CCCC2)NC(=O)[C@@H]2C[C@@H](OCC)CN2C(=O)[C@H](CCc2ccc(C(F)(F)F)c(Cl)c2)NC(=O)CN(C)C(=O)[C@@H]1Cc1ccc(C(F)(F)F)cc1 [PP0371] ([NMeL]I[NEtG][Sar][NPrPhe(4-CF3)][Sar][hPhe(3-Cl-4-CF3)][Hyp](Et)[Ac5c][NMeGly(cPent)]D-NMe2; lactam N-11) | B (a compound having 3 or more and less than 10 is denoted as B) | C (A compound having a KD ratio of 0.1 or more and less than 3 is denoted as C) | –
CCO[C@@H]1C[C@H]2C(=O)NC3(CCCC3)C(=O)N(C)[C@@H](C3CCCC3)C(=O)N(C)[C@H](C(=O)N3CCOCC3)CC(=O)N(C)[C@@H](CC(C)C)C(=O)N[C@@H]([C@@H](C)CC)C(=O)N(C)CC(=O)N(C)CC(=O)N(CC)[C@@H](Cc3ccc(C)cc3)C(=O)N(C)CC(=O)N[C@@H](CCc3ccc(C(F)(F)F)c(Cl)c3)C(=O)N2C1 [PP0042] ([NMeL]I[Sar][Sar][NEtPhe(4-Me)][Sar][hPhe(3-Cl-4-CF3)][Hyp](Et)[Ac5c][NMeGly(cPent)][NMeD]-Morpholide; lactam N-11) | C (A compound having a KD ratio of 0.1 or more and less than 3 is denoted as C) | C (A compound having a KD ratio of 0.1 or more and less than 3 is denoted as C) | –
CCCN1C(=O)[C@@H]2CCN2C(=O)CN(C2CC2)C(=O)[C@H]([C@@H](C)CC)NC(=O)[C@H](CC(C)C)N(C)C(=O)C[C@@H](C(=O)N2CCOCC2)N(C)C(=O)[C@H](C2CCCC2)N(C)C(=O)C2(CCCC2)NC(=O)[C@@H]2CCCN2C(=O)[C@H](CCc2ccc(C(F)(F)F)c(Cl)c2)NC(=O)CN(C)C(=O)[C@@H]1Cc1ccc(C(F)(F)F)cc1 [PP0273] ([NMeL]I[NcPrGly][Aze][NPrPhe(4-CF3)][Sar][hPhe(3-Cl-4-CF3)]P[Ac5c][NMeGly(cPent)][NMeD]-Morpholide; lactam N-11) | C (A compound having a KD ratio of 0.1 or more and less than 3 is denoted as C) | B (a compound having 3 or more and less than 10 is denoted as B) | –
CCC[C@H]1C(=O)N[C@@H]([C@@H](C)CC)C(=O)N(C2CC2)CC(=O)N(C)[C@H]2C/C=C\CCN(C2=O)[C@@H](Cc2ccc(C)cc2)C(=O)N(C)CC(=O)N[C@@H](CCc2ccc(Cl)c(Cl)c2)C(=O)N2C[C@H](OCC)C[C@H]2C(=O)NC2(CC(C)(C)C2)C(=O)N(C)[C@@H](C(CC)CC)C(=O)N(C)[C@H](C(=O)N(C)C)CC(=O)N1C [PP2561] | – | – | NRAS/KRAS (ratio of KD value with respect to GDP-bound NRAS wild-type protein to KD value with respect to KRAS) ([1]; class symbols): AA (a compound having 20 or more is denoted as AA); HRAS/KRAS (ratio of KD value with respect to GDP-bound HRAS wild-type protein to KD value with respect to KRAS) ([2]; class symbols): A (a compound having 10 or more and less than 20 is denoted as A)
CCCN(C)C(=O)[C@@H]1CC(=O)N(C)[C@@H](C2CC2)C(=O)N[C@@H]([C@@H](C)CC)C(=O)N(C)CC(=O)N(C)[C@H]2C/C=C\CCN(C2=O)[C@@H](Cc2ccc(C(F)(F)F)cc2)C(=O)N(C)CC(=O)N[C@@H](CCc2cc(F)c(C(F)(F)F)c(F)c2)C(=O)N2C[C@H](OCC)C[C@H]2C(=O)NC2(CC(C)(C)C2)C(=O)N(C)[C@@H](C2CCCC2)C(=O)N1C [PP2037] | – | – | NRAS/KRAS (ratio of KD value with respect to NRAS to KD value with respect to KRAS) ([1]; SPR, GDP-bound NRAS wild-type vs GDP-bound KRAS wild-type): A (a compound having 10 or more and less than 20 is denoted as A); HRAS/KRAS (ratio of KD value with respect to HRAS to KD value with respect to KRAS) ([2]; SPR, GDP-bound HRAS wild-type vs GDP-bound KRAS wild-type): A (a compound having 10 or more and less than 20 is denoted as A)
CCCO[C@@H]1C[C@H]2C(=O)NC3(CC(C)(C)C3)C(=O)N(C)[C@@H](C3CCCC3)C(=O)N(C)[C@H](C(=O)N(C)C)CC(=O)N(C)[C@H]3CCCCc4ccc(cc4)C[C@@H](C(=O)N(C)CC(=O)N[C@@H](CCc4ccc(Cl)c(Cl)c4)C(=O)N2C1)N1CC/C=C\C[C@@H](C1=O)N(C)C(=O)CN(C)C(=O)[C@H]([C@@H](C)CC)NC3=O [PP3092] | – | – | NRAS/KRAS (ratio of KD value with respect to GDP-bound NRAS wild-type protein to KD value with respect to KRAS) [1, 3]: A (a compound having 10 or more and less than 20 is denoted as A); HRAS/KRAS (ratio of KD value with respect to GDP-bound HRAS wild-type protein to KD value with respect to KRAS) [2, 3]: A (a compound having 10 or more and less than 20 is denoted as A)
